From publication PMC8748767 (Nature Communications, 2022)
Several values for one entry are separate records, joined by “and”; a condition that tells them apart may be missing. Equal entries are not always repeated. Where two headings read alike, the source gives them in different places.

Key:
THNΔ35 = biological target: T1, THNΔ35 (Homo sapiens, UniProt P07101); test: Differential scanning calorimetry (DSC), thermal stability with DA, THNΔ35; type: binding
T1 construct: His-MBP (TEV site) (N, cleaved yes); made in house
T1 sequence (P07101 67-528 limits assumed, stated change not applied): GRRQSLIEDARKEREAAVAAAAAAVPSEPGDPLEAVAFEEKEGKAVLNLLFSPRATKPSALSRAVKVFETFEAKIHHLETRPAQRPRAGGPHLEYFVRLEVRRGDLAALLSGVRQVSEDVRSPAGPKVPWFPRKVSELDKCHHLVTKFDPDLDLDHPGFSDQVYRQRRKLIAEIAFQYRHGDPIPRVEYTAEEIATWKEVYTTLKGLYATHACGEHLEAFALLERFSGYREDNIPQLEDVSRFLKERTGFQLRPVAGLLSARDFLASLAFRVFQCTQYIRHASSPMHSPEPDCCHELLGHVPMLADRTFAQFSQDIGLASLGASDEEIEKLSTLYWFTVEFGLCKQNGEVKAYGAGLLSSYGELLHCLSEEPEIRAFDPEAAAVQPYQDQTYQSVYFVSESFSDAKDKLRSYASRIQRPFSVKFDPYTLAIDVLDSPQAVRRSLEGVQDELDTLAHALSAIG
Procedure: (§1) In all experiments, 9 μM TH in 20 mM Na-Hepes pH 7, 200 mM NaCl was used, with the same buffer as reference, heating from 25 to 75 °C at a scan rate of 200 °C/h.

[1] = biological target: THS40p (S40 phosphorylated human TH) (Homo sapiens, UniProt P07101); test: biochemical
Sequence of THS40p (S40 phosphorylated human TH) (P07101 1-497 isoform P07101-3): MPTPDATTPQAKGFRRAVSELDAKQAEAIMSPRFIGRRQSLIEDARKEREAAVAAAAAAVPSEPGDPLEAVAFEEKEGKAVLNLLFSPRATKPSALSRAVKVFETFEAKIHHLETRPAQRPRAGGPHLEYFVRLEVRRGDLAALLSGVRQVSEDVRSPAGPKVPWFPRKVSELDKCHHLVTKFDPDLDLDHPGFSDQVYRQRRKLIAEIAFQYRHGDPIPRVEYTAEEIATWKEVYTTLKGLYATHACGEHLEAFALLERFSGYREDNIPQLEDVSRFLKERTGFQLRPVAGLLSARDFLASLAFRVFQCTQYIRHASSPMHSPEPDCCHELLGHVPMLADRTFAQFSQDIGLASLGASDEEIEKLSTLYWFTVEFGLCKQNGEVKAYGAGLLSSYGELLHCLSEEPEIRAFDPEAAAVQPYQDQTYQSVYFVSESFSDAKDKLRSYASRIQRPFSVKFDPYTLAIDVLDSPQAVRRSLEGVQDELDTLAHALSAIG
Procedure: TH was phosphorylated on S40 (control without kinase)[3], using the catalytic subunit of cAMP-dependent protein kinase (CatPKA, kind gift from S.O. Døskeland[64]). TH (4 mg/ml) was assayed in 50 mM Na-β-glycerophosphate pH 7.5, 1 mM DTT, 0.1 mM EGTA, 1x protease inhibitor cocktail (without EDTA, Pierce), 0.5 mM ATP, 5 mM MgCl2 and incubated with the catalytic subunit of CatPKA (200 nM, diluted from 20 µM in 60% glycerol, 0.5 mg/ml soya bean trypsin inhibitor) for 30 min at 25 °C. […] After phosphorylation, H89 (Sigma) (5 µM) was added and the samples were exchanged into 20 mM Hepes pH 7.0, 200 mM NaCl.
(§2) The activity of purified TH and truncated forms was assayed at 37 °C[7]. The purified enzymes were kept on ice and diluted with 0.5% (w/v) bovine serum albumin in 20 mM Na-Hepes pH 7, 200 mM NaCl and centrifuged at 10,000 × g for 5 min at 4 °C. […] TH was added to a final concentration of 1 µg/ml (17 nM subunit) and preincubated at 37 °C for 1 min. […] Protein was removed by precipitation at −20 °C for 90 min followed by centrifugation at 20,000 × g for 14 min at 4 °C. The amount of L-Dopa in the supernatant was determined using a 1200 series high performance liquid chromatography (HPLC) system (Agilent technologies). The chromatographic separation was obtained using an Agilent Zorbax 300-SCX column with 20 mM HAc pH 3.5, 2% (v/v) propanol as mobile phase at a flow rate of 3 ml/min. The fluorescence detector was set to λex = 280 nm and λem = 314 nm.
Statistical analyses were performed with Graphpad Prism software version 8.3.0. For SRCD, DSC and TH activity measurements, three enzyme samples from independent protein purifications were measured and the mean ± SD (standard deviation) was calculated. The homogeneity of variances was confirmed by Brown-Forsythe tests and multiple comparisons were made using one-way analysis of variance (ANOVA) followed by a post hoc HSD Tukey test. […]

[2] = biological target: T2, full-length human TH (TH1) (Homo sapiens, UniProt P07101); test: biochemical; conditions: for IC50: mean ± SD, n = 3, 37 °C, 50 µM L-Tyr, 200 µM BH4
T2 sequence (P07101 1-497 isoform P07101-3): as above
Procedure: as §2
(§3) Statistical analyses were performed with Graphpad Prism software version 8.3.0. For SRCD, DSC and TH activity measurements, three enzyme samples from independent protein purifications were measured and the mean ± SD (standard deviation) was calculated. The homogeneity of variances was confirmed by Brown-Forsythe tests and multiple comparisons were made using one-way analysis of variance (ANOVA) followed by a post hoc HSD Tukey test. […] The individual curves were fitted to a four-parameter logistic curve by the [Inhibitor] vs. response—Variable slope equation (y = min + ((max − min)/(1 + IC50/X)^Hill Slope) in Graphpad and the mean IC50 ± SD reported.

[3] = biological target: THNΔ35 (human TH with the first 35 residues deleted) (Homo sapiens, UniProt P07101); test: Assay of TH activity and inhibition by DA, deletion mutant THNΔ35; type: biochemical
Sequence of THNΔ35 (human TH with the first 35 residues deleted) (P07101 67-528 limits assumed, stated change not applied): as the sequence (P07101 67-528 limits assumed, stated change not applied) above
Procedure: as §2, §3

THNΔ43 = biological target: T3, THNΔ43 (Homo sapiens, UniProt P07101); test: Differential scanning calorimetry (DSC), thermal stability with DA, THNΔ43; type: binding
T3 construct: His-MBP (TEV site) (N, cleaved yes); made in house
T3 sequence (P07101 75-528 limits assumed, stated change not applied): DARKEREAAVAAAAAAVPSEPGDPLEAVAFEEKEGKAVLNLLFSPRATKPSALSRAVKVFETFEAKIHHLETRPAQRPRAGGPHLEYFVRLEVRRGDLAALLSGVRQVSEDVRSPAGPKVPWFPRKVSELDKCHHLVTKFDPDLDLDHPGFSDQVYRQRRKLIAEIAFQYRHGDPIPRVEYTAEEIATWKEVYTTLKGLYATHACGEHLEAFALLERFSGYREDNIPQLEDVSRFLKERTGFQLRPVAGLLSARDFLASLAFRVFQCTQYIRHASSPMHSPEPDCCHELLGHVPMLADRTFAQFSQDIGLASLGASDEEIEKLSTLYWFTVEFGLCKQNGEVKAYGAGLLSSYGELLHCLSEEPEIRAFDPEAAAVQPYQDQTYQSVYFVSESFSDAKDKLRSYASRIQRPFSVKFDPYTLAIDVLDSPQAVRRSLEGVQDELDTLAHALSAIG
Procedure: as §1

[4] = biological target: T2, full-length human TH (TH1); test: Differential scanning calorimetry (DSC), thermal stability with DA, TH; type: binding
Procedure: as §1

[5] = biological target: THNΔ70 (human TH with the entire N-terminal removed) (Homo sapiens, UniProt P07101); test: Assay of TH activity and inhibition by DA, deletion mutant THNΔ70; type: biochemical
Sequence of THNΔ70 (human TH with the entire N-terminal removed) (P07101 102-528 limits assumed, stated change not applied): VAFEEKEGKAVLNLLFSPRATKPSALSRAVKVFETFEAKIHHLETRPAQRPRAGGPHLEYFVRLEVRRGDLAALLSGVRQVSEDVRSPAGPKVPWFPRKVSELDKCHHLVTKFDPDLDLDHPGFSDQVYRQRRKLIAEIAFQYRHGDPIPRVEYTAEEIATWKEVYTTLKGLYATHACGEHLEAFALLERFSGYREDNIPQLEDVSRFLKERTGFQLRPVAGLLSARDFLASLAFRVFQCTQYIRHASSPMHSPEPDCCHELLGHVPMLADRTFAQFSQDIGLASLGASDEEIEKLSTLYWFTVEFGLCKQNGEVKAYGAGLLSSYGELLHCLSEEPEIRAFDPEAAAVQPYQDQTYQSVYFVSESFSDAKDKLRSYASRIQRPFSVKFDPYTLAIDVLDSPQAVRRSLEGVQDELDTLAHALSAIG
Procedure: as §2, §3

THNΔ70 = biological target: T4, THNΔ70 (Homo sapiens, UniProt P07101); test: Differential scanning calorimetry (DSC), thermal stability with DA, THNΔ70; type: binding
T4 construct: His-MBP (TEV site) (N, cleaved yes); made in house
T4 sequence (P07101 102-528 limits assumed, stated change not applied): as above
Procedure: as §1

[6] = biological target: THNΔ43 (human TH lacking the N-terminal 43 residues) (Homo sapiens, UniProt P07101); test: Assay of TH activity and inhibition by DA, deletion mutant THNΔ43; type: biochemical
Sequence of THNΔ43 (human TH lacking the N-terminal 43 residues) (P07101 75-528 limits assumed, stated change not applied): as the sequence (P07101 75-528 limits assumed, stated change not applied) above
Procedure: as §2, §3

[7] = biological target: TH, THNΔ35, THNΔ43, THNΔ70, THS40p (Homo sapiens, UniProt P07101); conditions: far-UV SRCD, two-fold molar ratio of DA
Sequence of TH, THNΔ35, THNΔ43, THNΔ70, THS40p (P07101 1-497 isoform P07101-3): as the sequence (P07101 1-497 isoform P07101-3) above
Procedure: SRCD spectra were collected as from 280 to 170 nm (3 scans averaged) at 25 °C on the AU-UV beamline at ASTRID2, part of the Institute for Storage Rings (ISA) facility at the University of Aarhus, Denmark. […] The path length of the cell was confirmed using an interferometry method and found to be 100.1 µm. The protein concentration was measured using Abs280nm prior to the measurements and more accurately by A205nm from the absorption spectra measured simultaneously with the CD spectra, using the respective theoretical extinction coefficients[65]. The A205nm measurements were used in the conversion of raw CD units to ∆ε(M^−1cm^−1) values. Secondary structure content was determined in the 250–180 nm range using the BeStSel algorithm[66].

[8] = individual samples (source data Sup Table 9)

Structure (SMILES): NCCc1ccc(O)c(O)c1 [DA, dopamine]
- Tonset with DA (THNΔ35; THNΔ35 + two-fold molar ratio of DA, mean ± SD, without DA 37.5 ± 1.2): 39.6 ± 0.3 °C
- Tmax with DA (THNΔ35; THNΔ35 + two-fold molar ratio of DA, mean ± SD, without DA 51.7 ± 0.7): 54.9 ± 1.0 °C
- T max, THNΔ35+DA (THNΔ35; [8]): 56.43 °C and 54.75 °C and 54.43 °C and 54.1 °C
- T onset, THNΔ35+DA (THNΔ35; [8]): 39.27 °C and 39.93 °C and 39.71 °C and 39.61 °C
- remaining activity at 1000 µM ([1]; 5 min, read-out: Relative TH activity, THS40p, 1000.00 µM dopamine, relative to mean activity with 0 µM DA, replicates): 0%
- IC50 ([1]; Dopamine IC50, THS40p, source data Fig 5f, SEM in a column of its own): 12.4 µM
- IC50 ([1]; THS40p, mean ± SD, n = 3, 37 °C, 50 µM L-Tyr, 200 µM BH4, read-out: IC50 for DA inhibition of TH activity): 12.4 ± 2.3 µM
- IC50 ([2]; IC50 for DA inhibition of TH activity): 0.49 ± 0.04 µM
- IC50 ([2]; read-out: IC50 for DA inhibition of TH activity): ~0.5 µM
- remaining activity at 0.08 µM ([2]; read-out: Relative TH activity, TH, 0.08 µM dopamine, relative to mean activity with 0 µM DA, replicates): 102%
- remaining activity at 0.63 µM ([2]; read-out: Relative TH activity, TH, 0.63 µM dopamine, relative to mean activity with 0 µM DA, replicates): 48.2%
- remaining activity at 5 µM ([2]; read-out: Relative TH activity, TH, 5.00 µM dopamine, relative to mean activity with 0 µM DA, replicates): 10%
- remaining activity at 10 µM ([2]; read-out: Relative TH activity, TH, 10.00 µM dopamine, relative to mean activity with 0 µM DA, replicates): 6.24%
- IC50 ([3]; THNΔ35, mean ± SD, n = 3, 37 °C, 50 µM L-Tyr, 200 µM BH4): 0.22 ± 0.02 µM
- remaining activity at 0.05 µM ([3]; read-out: Relative TH activity, THNΔ35, 0.05 µM dopamine, relative to mean activity with 0 µM DA, replicates): 89.3%
- remaining activity at 0.1 µM ([3]; read-out: Relative TH activity, THNΔ35, 0.10 µM dopamine, relative to mean activity with 0 µM DA, replicates): 73.8%
- remaining activity at 0.2 µM ([3]; read-out: Relative TH activity, THNΔ35, 0.20 µM dopamine, relative to mean activity with 0 µM DA, replicates): 56.1%
- remaining activity at 0.78 µM ([3]; read-out: Relative TH activity, THNΔ35, […] µM dopamine, relative to mean activity with 0 µM DA, replicates): 29.7%
- remaining activity at 6.25 µM ([3]; read-out: Relative TH activity, THNΔ35, 6.25 µM dopamine, relative to mean activity with 0 µM DA, replicates): 8.14%
- remaining activity at 25 µM ([3]; read-out: Relative TH activity, THNΔ35, […] dopamine, relative to mean activity with 0 µM DA, replicates): 3.12%
- Tonset with DA (THNΔ43; THNΔ43 + two-fold molar ratio of DA, mean ± SD, without DA 43.3 ± 0.9): 43.5 ± 0.5 °C
- Tmax with DA (THNΔ43; THNΔ43 + two-fold molar ratio of DA, mean ± SD, without DA 54.3 ± 1.7): 56.5 ± 0.4 °C
- T max, THNΔ43+DA (THNΔ43; [8]): 56.94 °C and 56.71 °C and 56.44 °C and 56.11 °C
- T onset, THNΔ43+DA (THNΔ43; [8]): 43.98 °C and 42.91 °C and 43.13 °C and 43.87 °C and 43.53 °C
- Tonset with DA ([4]; TH + two-fold molar ratio of DA, mean ± SD, without DA 43.3 ± 0.2): 45.2 ± 0.6 °C
- Tmax with DA ([4]; TH + two-fold molar ratio of DA, mean ± SD, without DA 54.9 ± 0.4): 58.6 ± 0.6 °C
- T max, TH+DA [4, 8]: 59.32 °C and 58.94 °C and 58.11 °C and 58.01 °C
- T onset, TH+DA [4, 8]: 45.07 °C and 45.48 °C and 44.42 °C and 45.76 °C
- IC50 ([5]; THNΔ70, mean ± SD, n = 3, 37 °C, 50 µM L-Tyr, 200 µM BH4): 19.4 ± 5.6 µM
- remaining activity at 0.2 µM ([5]; read-out: Relative TH activity, THNΔ70, 0.20 µM dopamine, relative to mean activity with 0 µM DA, replicates): 113%
- remaining activity at 12.58 µM ([5]; read-out: Relative TH activity, THNΔ70, […] µM dopamine, relative to mean activity with 0 µM DA, replicates): 74.6%
- remaining activity at 50.31 µM ([5]; read-out: Relative TH activity, THNΔ70, 50.31 µM dopamine, relative to mean activity with 0 µM DA, replicates): 35.7%
- remaining activity at 201.25 µM ([5]; read-out: Relative TH activity, THNΔ70, 201.25 µM dopamine, relative to mean activity with 0 µM DA, replicates): 13.3%
- Tonset with DA (THNΔ70; THNΔ70 + two-fold molar ratio of DA, mean ± SD, without DA 45.0 ± 0.5): 45.6 ± 0.6 °C
- Tmax with DA (THNΔ70; THNΔ70 + two-fold molar ratio of DA, mean ± SD, without DA 56.0 ± 0.1): 56.4 ± 0.2 °C
- T max, THNΔ70+DA (THNΔ70; [8]): 56.38 °C and 56.21 °C and 56.6 °C
- T onset, THNΔ70+DA (THNΔ70; [8]): 45.36 °C and 45.19 °C and 46.36 °C
- IC50 ([6]; THNΔ43, mean ± SD, n = 3, 37 °C, 50 µM L-Tyr, 200 µM BH4): 18.1 ± 1 µM
- remaining activity at 0.2 µM ([6]; read-out: Relative TH activity, THNΔ43, 0.20 µM dopamine, relative to mean activity with 0 µM DA, replicates): 105%
- remaining activity at 6.25 µM ([6]; read-out: Relative TH activity, THNΔ43, 6.25 µM dopamine, relative to mean activity with 0 µM DA, replicates): 73.9%
- remaining activity at 12.49 µM ([6]; read-out: Relative TH activity, THNΔ43, […] µM dopamine, relative to mean activity with 0 µM DA, replicates): 59.8%
- remaining activity at 24.98 µM ([6]; read-out: Relative TH activity, THNΔ43, 24.98 µM dopamine, relative to mean activity with 0 µM DA, replicates): 43.9%
- remaining activity at 49.97 µM ([6]; read-out: Relative TH activity, THNΔ43, 49.97 µM dopamine, relative to mean activity with 0 µM DA, replicates): 28.7%
- remaining activity at 199.88 µM ([6]; read-out: Relative TH activity, THNΔ43, 199.88 µM dopamine, relative to mean activity with 0 µM DA, replicates): 11.8%
- Effect of incubation with DA on secondary structure (helix content) of TH [7]: no increase in helix content
